Laboratory results from patent publication US11414422B2, “Substituted pyrido[4,3-b]indoles and azepino[4,5-b]indoles as inhibitors of cGAS” (The Rockefeller University, priority 2018, dated 2022).
pIC50: −log10 of the molar value. Like-named read-outs stand apart in the source and are kept apart here.

Assays:
THP1-Dual cells = assay: Cell-based Lucia luciferase assay in THP1-Dual cells (dsDNA transfection); conditions: Homo sapiens, 1 h pre-incubation, 100-bp dsDNA transfection for 24 h
THP1 cells = assay: IFNB1 mRNA expression, qRT-PCR, THP1 cells; type: cell-based; conditions: Homo sapiens, read-out: THP1, qRT-PCR IC50
[1] = tested on: primary human macrophage cells; assay: IFNB1 mRNA expression, qRT-PCR, primary human macrophages; type: cell-based; conditions: read-out: Human Macrophage, qRT-PCR IC50
h-cGAS = target: T1, h-cGAS (Homo sapiens, UniProt Q8N884); assay: cGAS biochemical assay, RapidFire 365 mass spectrometry (RF-MS); conditions: full-length h-cGAS 100 nM, dsDNA 25 nM, ATP and GTP 100 μM, 7 h at RT
T1 construct: The final concentration of full-length h-cGAS, dsDNA, ATP, and GTP were 100 nM

human PBMCs = assay: IFNB1 mRNA expression, qRT-PCR, human PBMCs; type: cell-based; conditions: PBMC, 4 hours post-transfection of dsDNA
[2] = THP-1, IFNB1 mRNA, 4 hours post-transfection of dsDNA
[3] = IFNB1 mRNA, 4 hours post-transfection of dsDNA
[4] = fresh PBMCs, read-out: Fresh human PBMCs, qRT-PCR IC50

T1 sequence (Q8N884 whole entry): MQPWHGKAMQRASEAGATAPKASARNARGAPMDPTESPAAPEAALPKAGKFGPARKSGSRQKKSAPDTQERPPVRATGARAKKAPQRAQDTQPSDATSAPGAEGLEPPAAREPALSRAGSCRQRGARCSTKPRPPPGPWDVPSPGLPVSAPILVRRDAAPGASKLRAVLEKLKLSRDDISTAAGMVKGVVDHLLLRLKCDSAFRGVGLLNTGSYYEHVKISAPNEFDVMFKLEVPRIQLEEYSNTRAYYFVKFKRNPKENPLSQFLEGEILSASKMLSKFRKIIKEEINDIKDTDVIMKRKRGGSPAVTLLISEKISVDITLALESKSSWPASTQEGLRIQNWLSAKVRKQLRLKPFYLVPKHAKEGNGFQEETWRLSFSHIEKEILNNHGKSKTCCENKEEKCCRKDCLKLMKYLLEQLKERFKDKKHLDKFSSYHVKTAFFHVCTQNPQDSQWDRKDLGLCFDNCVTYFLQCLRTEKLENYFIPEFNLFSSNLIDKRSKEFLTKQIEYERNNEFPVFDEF

SMILES | pIC50 (THP1-Dual cells) | pIC50 (THP1 cells; [2]) | pIC50 (h-cGAS) | pIC50 [1, 3] | pIC50 (human PBMCs; [4]) | pIC50 (THP1 cells; THP-1, 4 h) | pIC50 ([1]; 4 h) | pIC50 (human PBMCs; freeze-thawed PBMCs, read-out: Freeze-thawed human PBMCs, qRT-PCR IC50)
Cn1cc(-c2cc(Cl)c(Cl)c3[nH]c4c(c23)CN(C(=O)CO)CC4)cn1 [TDI-007635] | 5.09 | 5.67 | 7.37 | – | – | – | – | –
Nc1ccc(-c2cc(Cl)c(Cl)c3[nH]c4c(c23)CN(C(=O)CO)CC4)cn1 [TDI-008087] | 5.71 | – | – | – | – | 6.02 | 6.21 | –
O=C(CO)N1CCc2[nH]c3c(F)c(Cl)cc(-n4cccn4)c3c2C1 [TDI-009013, 1-(7-chloro-6-fluoro-9-pyrazol-1-yl-1,3,4,5-tetrahydropyrido [4,3-b]indol-2-yl)-2-hydroxy-ethanone] | < 4.40 | – | 6.23 | – | – | – | – | –
O=C(CO)N1CCc2[nH]c3c(F)c(Cl)cc(N4CCCC4=O)c3c2C1 [TDI-009072] | < 4.40 | – | 4.73 | – | – | – | – | –

The next lines start with results.

pIC50 (THP1-Dual cells) | pIC50 (THP1 cells; [2]) | pIC50 (h-cGAS) | SMILES | pIC50 [1, 3] | pIC50 (human PBMCs; [4]) | pIC50 (THP1 cells; THP-1, 4 h) | pIC50 ([1]; 4 h) | pIC50 (human PBMCs; freeze-thawed PBMCs, read-out: Freeze-thawed human PBMCs, qRT-PCR IC50)
5.28 | 5.84 | – | O=C(CO)N1CCc2[nH]c3c(Cl)c(Cl)cc(-c4cn[nH]c4)c3c2C1 [TDI-007445, 1-(6,7-Dichloro-9-(1H-pyrazol-4-yl)-1,3,4,5-tetrahydro-2H-pyrido[4,3-b]indol-2-yl)-2-hydroxyethan-1-one] | 5.92 | – | – | – | –
5.48 | 6.03 | 7.84 | Cn1ccc(-c2cc(Cl)c(Cl)c3[nH]c4c(c23)CN(C(=O)CO)CC4)n1 [TDI-008077] | 6.07 | 5.94 | – | – | –
5.77 | 5.96 | 7.64 | Cn1ccc(-c2cc(Cl)c(F)c3[nH]c4c(c23)CN(C(=O)CO)CC4)n1 [TDI-008246, 1-(7-Chloro-6-fluoro-9-(1-methyl-1H-pyrazol-3-yl)-1,3,4,5-tetrahydro-2H-pyrido[4,3-b]indol-2-yl)-2-hydroxyethan-1-one] | 6.22 | 5.95 | – | – | 5.94
6.14 | – | 7.75 | Cn1ncc(-c2cc(Cl)c(F)c3[nH]c4c(c23)CN(C(=O)CO)CC4)n1 [TDI-009186] | – | – | – | – | –
5.36 | – | 7.41 | Cn1ccc(-c2cc(Cl)c(C#N)c3[nH]c4c(c23)CN(C(=O)CO)CC4)n1 [TDI-009208] | – | – | – | – | –
